# Laboratory results from patent US20040005537A1, “Method of identifying toxic agents using differential gene expression” (priority 2000, published 2004).
# Test system: rat heart tissue
# Test: GENECALLING differential gene expression analysis after dosing of serotonin modulating agents
# Format: in vivo, Sprague Dawley rats
# Description: Control animals received sterile water or canola oil. The animals were sacrificed 24 hours following the last dose. Liver tissue was dissected from the animals, and total RNA was recovered from the dissected tissue. cDNA was prepared and the resulting samples were processed through using GENECALLING™ differential expression analysis as described in U.S. Pat. No. 5,871,697 and in Shimkets et al., Nature Biotechnology 17:798-803 (1999). The contents of these patents and publications are incorporated herein by reference in their entirety.
# Thousands of gene fragments were initially found to be differentially expressed in rat heart tissue in response to serotonin modulating agents in. Genes fragments whose expression levels were modulated greater than ±1.5-fold were selected for further analysis.
# Column 6 of Table 1, entitled “Function”, lists the type of classification assigned for the protein, based on its function. The 210 single nucleic acid sequences identified herein, are referred to herein as CARDIOTOX 1-210.
smiles,measurement,setting,value
CCN[C@@H](C)Cc1cccc(C(F)(F)F)c1 [dexfenfluramine],"Effects on Transcription Level: Novel gene fragment, 524 bp, 86% SI to mouse F-box protein FBX6b [AF176526]",CARDIOTOX 1,+1.5 fold
same,"Effects on Transcription Level: Novel gene fragment, 306 bp, 91% SI to mouse low density lipoprotein receptor related protein 4 [AB013874]",CARDIOTOX 2,−1.8 fold
same,"Effects on Transcription Level: Novel gene fragment, 540 bp, 97% SI to mouse skeletal muscle alpha-actin [X03766]",CARDIOTOX 3,+2.3 fold
same,"Effects on Transcription Level: Novel gene fragment, 80 bp",CARDIOTOX 4,−1.6 fold
same,"Effects on Transcription Level: Novel gene fragment, 957 bp, 99% SI to kidney injury associated moleculer HW036 [V80591]",CARDIOTOX 5,−1.6 fold
same,"Effects on Transcription Level: Novel gene fragment, 282 bp, 85% SI to human KIAA1515 protein [AB040948]",CARDIOTOX 6,−1.7 fold
same,"Effects on Transcription Level: Novel gene fragment, 405 bp, 88% SI to human 2-oxoglutarate dehydrogenase [D10523]",CARDIOTOX 7,+1.5 fold
same,Effects on Transcription Level: UCP2,"CARDIOTOX 8, GenBank AB010743",−1.6 fold
same,Effects on Transcription Level: Plasma membrane Ca2 + ATPase-isoform 1,"CARDIOTOX 9, GenBank J03753",−1.6 fold
same,"Effects on Transcription Level: Novel gene fragment, 242 bp, 97% SI to mouse HSP86 heat-shock protein [X16857]",CARDIOTOX 10,+1.4 fold
same,"Effects on Transcription Level: Novel gene fragment, 280 bp, 65% SI to human TRF1-interacting, ankyrin-related ADP-ribose polymerase [AF082556]",CARDIOTOX 11,+1.4 fold
same,"Effects on Transcription Level: Novel gene fragment, 348 bp, 88% SI to mouse Sec61 protein complex gamma subunit [U11027]",CARDIOTOX 12,+1.3 fold
same,"Effects on Transcription Level: Novel gene fragment 553 bp, 93% SI to mouse Sid329 [AB024984]",CARDIOTOX 13,+1.4 fold
same,Effects on Transcription Level: Kruppel-like transcription factor,"CARDIOTOX 14, GenBank AB020759",+1.3 fold
same,Effects on Transcription Level: Ribosomal protein L3,"CARDIOTOX 15, GenBank X62166",+1.4 fold
same,Effects on Transcription Level: Glucose-regulated protein (GRP) 75,"CARDIOTOX 16, GenBank S78556",+1.4 fold
same,Effects on Transcription Level: Immunoglobulin heavy chain binding protein (BiP),"CARDIOTOX 17, GenBank M14050",+1.4 fold
same,Effects on Transcription Level: Membrane-spannining proteoglycan NG2,"CARDIOTOX 18, GenBank X56541",−1.4 fold
same,"Effects on Transcription Level: Novel gene fragment, 1294 bp, 96% SI to mouse Sui 1 (elF) homolog [AF129888]",CARDIOTOX 19,+1.6 fold
same,"Effects on Transcription Level: Novel gene fragment, 723 bp, 85% SI to human translation initiation factor elF3 p40 subunit [U54559]",CARDIOTOX 20,+1.6 fold
same,"Effects on Transcription Level: Novel gene fragment, 1324 bp, 76% SI to human flavoprotein subunit of complex II [D30648]",CARDIOTOX 21,+1.5 fold
same,"Effects on Transcription Level: Novel gene fragment, 852 bp, 81% SI to human vacuolar proton-ATPase subunit M9.2 [Y15286]",CARDIOTOX 22,+1.5 fold
same,"Effects on Transcription Level: Novel gene fragment, 178 bp, 91% SI to mouse myosin light chain-2 isoform MLC-2a [S70785]",CARDIOTOX 23,+1.6 fold
same,"Effects on Transcription Level: Novel gene fragment, 167 bp, 90% SI to mouse Rab20 [X80332]",CARDIOTOX 24,+1.7 fold
same,"Effects on Transcription Level: Novel gene fragment, 1070 bp, 80% SI to human muscle-specific protein [AF249873]",CARDIOTOX 25,+1.5 fold
same,"Effects on Transcription Level: Novel gene fragment, 1143 bp, 82% SI to human sarcoma amplified sequence (SAS) [U01160]",CARDIOTOX 26,+1.7 fold
same,"Effects on Transcription Level: Novel gene fragment, 74 bp,75% SI to human secreted protein [X30160] (from patent database)/[X97578] (from patent database)/potential cytokine)",CARDIOTOX 27,+1.5 fold
same,"Effects on Transcription Level: Novel gene fragment, 408 bp, 90% SI to human CGI-07 protein [AF132941]",CARDIOTOX 28,+1.6 fold
same,"Effects on Transcription Level: Novel gene fragment, 618 bp, 95% SI to rat progression related cDNA, ZNPE-120 3′ end partial sequence [patent database X90805]",CARDIOTOX 29,+1.5 fold
same,"Effects on Transcription Level: Novel gene fragment, 717 bp",CARDIOTOX 30,+1.5 fold
same,"Effects on Transcription Level: Novel gene fragment, 546 bp",CARDIOTOX 31,+1.8 fold
same,"Effects on Transcription Level: Novel gene fragment, 920 bp, 91% SI to human HSPC061 [AF161546]",CARDIOTOX 32,+1.5 fold
same,"Effects on Transcription Level: Novel gene fragment, 203 bp, 92% SI to rabbit sarcoplasmic reticulum glycoprotein [J04480]",CARDIOTOX 33,−1.7 fold
same,"Effects on Transcription Level: Novel gene fragment, 178 bp, 68% SI to mouse IgG receptor (beta-Fc-gamma-RII)[M63159]",CARDIOTOX 34,+1.6 fold
same,Effects on Transcription Level: Ribosomal protein L6,"CARDIOTOX 35, GenBank X87107",+1.6 fold
same,Effects on Transcription Level: CAP2 protein (adenylyl cyclase-associated protein 2),"CARDIOTOX 36, GenBank U31935",+2.0 fold
same,Effects on Transcription Level: Alpha-platelet-derived growth factor receptor,"CARDIOTOX 37, GenBank M63837",+1.6 fold
same,Effects on Transcription Level: Rab GD1 alpha protein,"CARDIOTOX 38, GenBank X74402",−1.6 fold
same,Effects on Transcription Level: PKC-zeta-interacting protein,"CARDIOTOX 39, GenBank Y08355",+1.6 fold
same,Effects on Transcription Level: ERK or MAP kinase,"CARDIOTOX 40, GenBank X65198",+1.5 fold
same,Effects on Transcription Level: Peroxisomal multifunctional enzyme type II,"CARDIOTOX 41, GenBank U37486",+1.5 fold
same,Effects on Transcription Level: HBP23 (heme-binding protein 23 kDa),"CARDIOTOX 42, GenBank D30035",+1.7 fold
same,Effects on Transcription Level: Caveolae-associated protein,"CARDIOTOX 43, GenBank U90725",+3.0 fold
same,Effects on Transcription Level: Prenylated rab acceptor 1 (PRA1),"CARDIOTOX 44, GenBank AF025506",+1.5 fold
same,"Effects on Transcription Level: Novel gene fragment, 337 bp, 88% SI to rabbit cardiac ryanodine receptor (RyR-2)[U50465]",CARDIOTOX 45,−1.7 fold
same,"Effects on Transcription Level: Novel gene fragment, 81 bp, 85% SI to human titin [X90568]",CARDIOTOX 46,−2.2 fold
same,"Effects on Transcription Level: Novel gene fragment, 428 bp, 86% SI to human titin [X90568]",CARDIOTOX 47,−2.0 fold
same,"Effects on Transcription Level: Novel gene fragment, 374 bp, 88% SI to human titin [X90568]",CARDIOTOX 48,−2.3 fold
same,"Effects on Transcription Level: Novel gene fragment, 428 bp, 85% SI to human titin [90568]",CARDIOTOX 49,−2.2 fold
same,"Effects on Transcription Level: Novel gene fragment, 1216 bp, 93% SI to mouse mircotubule-associated protein (MAP) 1B protein [AF115776]",CARDIOTOX 50,−1.9 fold
same,"Effects on Transcription Level: Novel gene fragment, 1115 bp, 83% SI to human KIAA0549 protein [AB011121]",CARDIOTOX 51,−2.0 fold
same,"Effects on Transcription Level: Novel gene fragment, 153 bp",CARDIOTOX 52,−1.7 fold
same,"Effects on Transcription Level: Novel gene fragment, 89 bp, 93% SI to human putative glialblastoma cell differentiation-related protein (GBDR1) [AF068195]",CARDIOTOX 53,−1.6 fold
same,Effects on Transcription Level: Rho-associated kinase beta,"CARDIOTOX 54, GenBank U61266",−1.9 fold
same,Effects on Transcription Level: Adenylate kinase 3,"CARDIOTOX 55, GenBank D13062",+1.5 fold
same,Effects on Transcription Level: Amyloid beta-peptide binding protein,"CARDIOTOX 56, GenBank AF049878",+1.5 fold
same,Effects on Transcription Level: Mitochondrial adenine nuleotide translocator,"CARDIOTOX 57, GenBank D12771",+1.5 fold
same,"Effects on Transcription Level: Novel gene fragment, 710 bp, 94% SI to mouse chromatin structural protein homolog Supt5 hp (Supt5 h)[U88539]",CARDIOTOX 58,+3.8 fold
same,"Effects on Transcription Level: Novel gene fragment, 186 bp, 66% SI to human N-acetylglucosaminyltransferase 1 (GlcNAc-TI)[M55621]",CARDIOTOX 60,−1.7 fold
same,"Effects on Transcription Level: Novel gene fragment, 238 bp, 95% SI to mouse MAP kinase-activated protein kinase 2 [X76850]",CARDIOTOX 61,−2.1 fold
same,"Effects on Transcription Level: Novel gene fragment, 173 bp, 70% SI to G protein-coupled receptor kinase GRK4 [X97568]",CARDIOTOX 62,−6.1 fold
same,"Effects on Transcription Level: Novel gene fragment, 133 bp, 77% SI to human apoptosis related protein hSARP3 [patent database: V19114]",CARDIOTOX 63,−3.4 fold
same,"Effects on Transcription Level: Novel gene fragment, 477 bp, 98% SI to peroxisomal phytanoyl-CoA hydroxylase (PHYH) [AF121345]",CARDIOTOX 64,+5.0 fold
same,"Effects on Transcription Level: Novel gene fragment, 413 bp, 95% SI to mouse dihydrolipoamide dehydrogenase (Dld) [U73445]",CARDIOTOX 65,+1.9 fold
same,"Effects on Transcription Level: Novel gene fragment, 726 bp, 76% SI to human succinate dehydrogenase flavoprotein subunit (SDH) [L21936]",CARDIOTOX 66,−4.1 fold
same,"Effects on Transcription Level: Novel gene fragment, 440 bp, 92% SI to mouse cytochrome c oxidase Vllc [X52940]",CARDIOTOX 67,+3.6 fold
same,"Effects on Transcription Level: Novel gene fragment, 276 bp, 80% SI to human titin [X90568]",CARDIOTOX 68,−11.9 fold
same,"Effects on Transcription Level: Novel gene fragment, 149 bp, 70% SI to human titin [X90568]",CARDIOTOX 69,−5.5 fold
same,"Effects on Transcription Level: Novel gene fragment, 467 bp, 94% SI to mouse gelsolin [J04953]",CARDIOTOX 70,−3.2 fold
same,"Effects on Transcription Level: Novel gene fragment, 535 bp, 90% SI to mouse slow/cardiac troponin C [M29793]",CARDIOTOX 71,−2.0 fold
